Values of other authors, collected in US20250288650A1, “Therapeutic Regimens and Methods for Reducing Body Weight and/or Serum Lipids using a GLP-1R and GCGR Agonist” (Spitfire Pharma LLC, priority 2024, published 2025).

Assays:
[1] = 6 weeks
[2] = over 26 weeks of administration

CCCCCCCCCCCCCCCC(=O)N[C@@H](CCC(=O)NCCCC[C@H](NC(=O)[C@H](CC(=O)O)NC(=O)[C@H](CO)NC(=O)[C@@H](NC(=O)[C@H](Cc1ccccc1)NC(=O)[C@@H](NC(=O)CNC(=O)[C@H](CCC(N)=O)NC(=O)[C@H](CO)NC(=O)[C@@H](N)Cc1c[nH]cn1)[C@@H](C)O)[C@@H](C)O)C(=O)N[C@@H](CO)C(=O)N[C@@H](CCC(=O)O)C(=O)N[C@@H](Cc1ccc(O)cc1)C(=O)N[C@@H](CC(C)C)C(=O)N[C@@H](CC(=O)O)C(=O)N[C@@H](CO)C(=O)N[C@@H](CCC(=O)O)C(=O)N[C@@H](CCCNC(=N)N)C(=O)N[C@@H](C)C(=O)N[C@@H](CCCNC(=N)N)C(=O)N[C@@H](CC(=O)O)C(=O)N[C@@H](Cc1ccccc1)C(=O)N[C@H](C(=O)N[C@@H](C)C(=O)N[C@@H](Cc1c[nH]c2ccccc12)C(=O)N[C@@H](CC(C)C)C(=O)N[C@@H](CCC(=O)O)C(=O)N[C@@H](C)C(=O)NCC(=O)NCC(=O)O)C(C)C)C(=O)O [cotadutide]
reduction in liver fat content [1]: 39%
degree of weight loss [2]: 5.4%
